Assay results published in patent publication US20210387983A1, “CRYSTALLINE ALK5 INHIBITORS AND USES THEREOF” (THERAVANCE BIOPHARMA R&D IP, LLC, priority 2020, published 2021).

Assays:
[1] = Lung PK/PD: PK study after oral aspiration; format: in vivo; conditions: C57bl/6n, mouse, lung / plasma, mice, 3% glycerol in PBS pH=4, read-out: (lung AUC0-4):(plasma AUC0-4) ratio
Protocol: C57bl/6n mice were acclimated for at least 3 days before use. On the day of the experiment, animals were grouped into sample sizes of 5 (n=10 for the TGF-β stimulated group). The compound of Formula I (formulated in 3% glycerol in PBS; pH=4) was pre-treated via oral aspiration (OA; animals are forced to aspirate solution into the lungs by covering their nose). All oral aspirations were performed using a 50 μL dosing volume and accompanied by the appropriate vehicle control groups. Following compound OA treatment, the animals were returned to their home cages and monitored. Compound pre-treatment occurred 4 hours prior to harvest for screening and dose-response studies; duration studies had variable compound pre-treatment times. One hour prior to harvest, animals were challenged via oral aspiration a second time with PBS vehicle or recombinant human TGF-β1 protein (0.01 μg per animal dissolved in 1 part 4 mM HCl and 2 parts 3% glycerol in PBS). Five minutes prior to harvest, animals were deeply anesthetized under isoflurane and euthanized via cervical dislocation. […]
Left lung lobes were harvested immediately after BALF collection. […] Following collection of the supernatant, a total protein quantification assay (Bradford) was performed to normalize the concentrations of all samples. […]
Plasma, lung and macrophage drug concentrations were quantified. […]

[2] = system: TGF-β-stimulated SMAD3 phosphorylation in BEAS-2B cells; test: Cellular ALK5 potency assay, inhibition of TGF-β stimulated pSMAD3 formation in BEAS-2B cells; format: cell-based; conditions: Homo sapiens, 1 hour compound incubation, TGF-β 10 ng/mL for 30 minutes, read-out: pIC50 value, inhibition of TGF-β-stimulated pSMAD3 formation (converted)
Protocol: The potency of the compound of Formula I for inhibition of TGF-β-stimulated SMAD3 phosphorylation was measured in BEAS-2B cells, a human lung epithelial cell line. TGF-β signals through activin receptor-like kinase 5 (ALK5) immediately prior to SMAD3 phosphorylation.
BEAS-2B cells were grown using 50% DMEM (Life Technologies) and 50% F-12 (Life Technologies) media, supplemented with 10% Fetal Bovine Serum (ATCC), 25 mM HEPES (Life Technologies), and 1× Pen-Strep (Life Technologies). Cells were cultured in a humidified incubator set at 37° C., 5% CO2, and trypsonized using 0.25% Trypsin with 0.5% polyvinylpyrrolidone (PVP).
For the assay, BEAS-2B cells were seeded at 7,500 cells/well (25 μL/well) in a 384-well plate and cultured overnight. Before dosing, growth media was aspirated and the wells were rinsed with HBSS Buffer (HBSS with Calcium and Magnesium, Life Technologies) supplemented with 25 mM HEPES (Life Technologies) and 1% Bovine Serum Albumin (Roche). […] AlphaLISA Acceptor and Detector beads (PerkinElmer) were added 2 hours apart, then incubated overnight to be read the next day. The potency of the compound was determined through analysis of dose-dependent quantified changes in pSMAD3 signal from baseline (non-compound treated TGF-β stimulated cells). Data are expressed as pIC50 (negative decadic logarithm IC50) values.

**Q.** What does the source list for `C[C@@H]1CN(CCNc2cnc3ccc(-c4nc[nH]c4-c4cc(Cl)ccc4F)nc3c2)C[C@H](C)N1` [compound of Formula I, 6-(5-(5-chloro-2-fluorophenyl)-1H-imidazol-4-yl)-N-(2-((3S,5R)-3,5-dimethylpiperazin-1-yl)ethyl)-1,5-naphthyridin-3-amine]?
**A.** Kp [1]: > 75; IC50 [2]: 0.0251 to 0.158 µM
